Laboratory results: ChEMBL document CHEMBL2417471, “Synthesis and biological activity of (24E)- and (24Z)-26-hydroxydesmosterol” (Bioorg Med Chem, 2013)
The source made the active and inactive calls. No cut-off for these calls is given here.

Columns and labels:
Format in all cases: cell-based
[1] = system: SN4741; experiment: Agonist activity at LXR in mouse SN4741 cells assessed as upregulation of ABCA1 protein expression at 10 uM by immunoblot analysis
[2] = biological target: T1, Oxysterols receptor LXR-beta (Homo sapiens) (UniProt P55055); experiment: Agonist activity at LXRbeta (unknown origin) transfected in mouse SN4741 cells at 10 uM after 24 hrs by luciferase reporter gene assay
T1 sequence (whole entry): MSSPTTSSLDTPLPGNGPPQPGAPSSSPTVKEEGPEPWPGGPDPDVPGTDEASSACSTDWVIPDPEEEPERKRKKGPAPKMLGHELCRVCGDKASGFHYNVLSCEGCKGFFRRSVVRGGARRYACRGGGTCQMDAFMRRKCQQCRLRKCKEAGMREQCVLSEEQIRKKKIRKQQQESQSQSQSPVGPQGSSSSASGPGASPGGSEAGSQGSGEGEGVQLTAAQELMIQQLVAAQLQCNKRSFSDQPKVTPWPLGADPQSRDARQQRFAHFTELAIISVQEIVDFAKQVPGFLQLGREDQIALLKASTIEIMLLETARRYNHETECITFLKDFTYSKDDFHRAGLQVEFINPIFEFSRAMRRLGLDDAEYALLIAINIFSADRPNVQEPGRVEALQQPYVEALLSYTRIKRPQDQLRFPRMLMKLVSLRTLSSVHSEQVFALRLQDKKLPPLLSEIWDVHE

[3] = biological target: T2, Oxysterols receptor LXR-alpha (Homo sapiens) (UniProt Q13133); experiment: Agonist activity at LXRalpha (unknown origin) transfected in mouse SN4741 cells at 10 uM after 24 hrs by luciferase reporter gene assay
T2 sequence (whole entry): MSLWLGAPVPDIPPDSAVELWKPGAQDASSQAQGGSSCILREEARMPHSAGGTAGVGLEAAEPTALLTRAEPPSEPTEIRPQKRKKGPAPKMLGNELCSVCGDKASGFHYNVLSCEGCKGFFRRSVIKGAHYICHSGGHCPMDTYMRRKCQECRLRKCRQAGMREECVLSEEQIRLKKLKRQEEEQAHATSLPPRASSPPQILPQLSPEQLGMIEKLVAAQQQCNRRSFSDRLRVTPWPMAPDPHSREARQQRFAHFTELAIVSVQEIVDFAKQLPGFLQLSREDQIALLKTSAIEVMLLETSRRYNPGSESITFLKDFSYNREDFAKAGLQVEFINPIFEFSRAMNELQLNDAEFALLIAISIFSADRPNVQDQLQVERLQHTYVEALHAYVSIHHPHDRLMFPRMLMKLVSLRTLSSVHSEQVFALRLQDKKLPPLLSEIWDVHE

With `C/C(=C/CC[C@@H](C)[C@H]1CC[C@H]2[C@@H]3CC=C4C[C@@H](O)CC[C@]4(C)[C@H]3CC[C@]12C)CO` as the molecule, how does the Activity [1] read?
Its Activity is “inactive”.

What about the Activity [2] of the same molecule?
Its Activity is “inactive”.

And the Activity [3]?
The Activity was “inactive”.

With `C/C(=C\CC[C@@H](C)[C@H]1CC[C@H]2[C@@H]3CC=C4C[C@@H](O)CC[C@]4(C)[C@H]3CC[C@]12C)CO` as the molecule, how does the Activity [1] read?
Its Activity is “inactive”.

What about the Activity [2] of the same molecule?
Its Activity is “inactive”.

What about the Activity [3] of the same molecule?
The Activity was “inactive”.

Which results are given for `CC(C)=CCC[C@@H](C)[C@H]1CC[C@H]2[C@@H]3CC=C4C[C@@H](O)CC[C@]4(C)[C@H]3CC[C@]12C`?
Activity [1]: Active; Activity [2]: Active; Activity [3]: Active
